From patent US20080242688A1, “Method 741” (ASTRAZENECA AB, priority 2007, published 2008)
Values joined by “and” are separate entries in the source; they are usually repeats but may differ in a detail not shown here. Identical values can stand only once. Like-named read-outs stand apart in the source and are kept apart here.

Key:
[1] = target: human recombinant α7 receptor (Homo sapiens, UniProt P36544); experiment: Whole cell current activation kinetics, α7-HEK cells; format: cell-based; design: expressed in transfected cells; host or cells: Xenopus oocytes (mRNA injected)
Chain of human recombinant α7 receptor (P36544 23-502): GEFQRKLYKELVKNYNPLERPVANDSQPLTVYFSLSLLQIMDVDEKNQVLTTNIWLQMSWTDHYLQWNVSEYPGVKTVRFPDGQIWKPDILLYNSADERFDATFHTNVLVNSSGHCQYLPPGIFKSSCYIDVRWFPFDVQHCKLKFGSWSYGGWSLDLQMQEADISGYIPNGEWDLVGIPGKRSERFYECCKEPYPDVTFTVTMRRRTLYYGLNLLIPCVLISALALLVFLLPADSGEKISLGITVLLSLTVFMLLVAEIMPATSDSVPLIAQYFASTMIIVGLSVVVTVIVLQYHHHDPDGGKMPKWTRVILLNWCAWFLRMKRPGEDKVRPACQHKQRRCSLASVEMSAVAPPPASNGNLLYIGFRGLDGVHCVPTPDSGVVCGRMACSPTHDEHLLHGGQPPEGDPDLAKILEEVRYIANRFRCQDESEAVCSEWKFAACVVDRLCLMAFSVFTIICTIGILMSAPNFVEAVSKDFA

[2] = tested on: putative dopaminergic neurons within the VTA; experiment: Ventral Tegmental Area dopamine neuron firing; format: in vivo; details: rat, iv, 0.17-0.5 h
[3] = tested on: mice; experiment: Novel Object Recognition (NOR); format: in vivo, mouse; details: 0.00178 mg/kg sc
Text: We have now discovered that much lower doses of AZD0328 that provide much lower plasma concentrations, can improve performance of cognitive tasks in mice, rats, and monkeys. AZD0328 at low doses increased novel object recognition in mice. In this procedure, mice were habituated to a chamber in which they were then allowed to “sample” two objects before being removed from the chamber. After a delay during which one of the objects was replaced with a novel object, the mice were returned to the chamber for testing. If the delay was brief, mice spent more time exploring the novel object than the familiar object, which is thought to indicate that the mice “recognize” […], a measure of episodic memory.
AZD0328 increased novel object recognition in mice (Table 2). In this procedure, mice were habituated to a chamber in which they were then allowed to “sample” two objects before being removed from the chamber. After a delay during which one of the objects was replaced with a novel object, the mice were returned to the chamber for testing. If the delay was brief, mice spent more time exploring the novel object than the familiar object, which is thought to indicate that the mice “recognize” that the novel object is novel.

[4] = target: α7 receptor (Rattus norvegicus, UniProt Q05941); experiment: Hippocampal slice GABA sIPSC frequency; format: cell-based; details: 5 μM
Chain of α7 receptor (Q05941 23-502): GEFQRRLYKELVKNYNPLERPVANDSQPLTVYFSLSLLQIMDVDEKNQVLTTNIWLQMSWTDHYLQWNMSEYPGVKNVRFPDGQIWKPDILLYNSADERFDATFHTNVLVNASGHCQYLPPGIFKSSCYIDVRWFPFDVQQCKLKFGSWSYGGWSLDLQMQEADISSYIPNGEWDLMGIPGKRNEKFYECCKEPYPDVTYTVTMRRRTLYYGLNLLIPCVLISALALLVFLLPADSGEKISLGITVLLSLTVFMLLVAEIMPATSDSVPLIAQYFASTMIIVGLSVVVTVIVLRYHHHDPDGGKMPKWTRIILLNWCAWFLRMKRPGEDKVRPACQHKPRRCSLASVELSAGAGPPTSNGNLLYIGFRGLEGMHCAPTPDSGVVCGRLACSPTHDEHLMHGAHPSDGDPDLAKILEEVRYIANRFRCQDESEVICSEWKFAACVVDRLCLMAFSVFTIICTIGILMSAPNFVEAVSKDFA
Text: In membranes prepared either from cultured, human recombinant α7 receptor-expressing, human embryonic kidney cells α7-HEK) or from rat brain hippocampus, AZD0328 competed with binding of an iodinated form of the high-affinity, selective α7 receptor antagonist snake toxin, [^125I]-α-bungarotoxin (BTX) (Table 1). In Xenopus oocytes injected with human, recombinant α7 receptor mRNA, AZD0328 activates whole cell currents (Table 2). […] In acutely dissociated rat hippocampal interneurons, AZD0328 elicits rapidly activated, desensitizing whole-cell current (Table 1), consistent with the known properties of rat neuronal α7 receptors. […] AZD0328 modulates synaptic function, consistent with the well-known role of α7 receptors as heteroreceptor modulators of glutamatergic and GABAergic synaptic function.

[5] = Single dose PK/TK, rhesus monkey; format: in vivo; details: for half-life: read-out: T½ (converted); for Vd: read-out: Vss
Protocol: Pharmacokinetic studies in rats and monkeys were used to estimate the plasma concentrations associated with doses at which AZD0328 improved cognitive performance in these species. For example, in rhesus monkeys, two studies were conducted to determine the pharmacokinetic profile of AZD0328 after administration of 0.048 and 1.7 mg per kg AZD0328. […] We thus estimated the peak plasma concentrations in monkeys that received AZD0328 at 0.00048-0.016 mg per kg to be 0.6-18 nM. Similar studies and calculations in rats, when extended to mice, led us to estimate plasma concentrations at 0.001-0.1 mg per kg body weight to be 0.29-100 nM in these species.
This section provides a summary of the pharmacokinetic and metabolism properties of AZD0328 derived from in vivo studies. […] The derived PK/TK parameters from these studies are presented in Table 4 for single dose studies (DMR4, 0619LR, 20030191PCR, DMO16, DMB10, DMW12, 50190, 0190DD and 03.330/1), and are presented in Table 5 multiple dose PK/TK studies (DMR4, 0612AR, DMB15, 50190, 0190DD and 0295AD).

[6] = CNS side effects in rhesus monkeys; details: rhesus monkey, in vivo, po, read-out: NOAEL for decreased spatial working memory performance and CNS side effects (oral movements)
Protocol: CNS side effects and decreased spatial working memory performance only occurred together in monkeys administered high dose AZD0328. The NOAEL for decreased spatial working memory performance and oral movements in rhesus monkeys was determined to be 0.016 mg/kg. Doses projected to produce therapeutic benefits in human subjects are those doses that were effective in functional assays across three species and were below the NOAEL for adverse effects on cognitive function and general behaviour in rhesus monkeys (<0.016 mg/kg). Doses projected to produce therapeutic benefits in human subjects therefore fall in the range 0.0001-0.01 mg/kg.

[7] = tested on: rhesus monkeys; experiment: Spatial delayed response (SDR) task; format: in vivo, rhesus monkey
Text: AZD0328 at low doses improved performance in the spatial delayed response test in monkeys. Rhesus monkeys were trained in a spatial delayed response task. In this task, food-motivated monkeys observed one of several spatially-displaced wells being baited with a food reward. After a brief delay during which a shutter is drawn and the wells are covered, the monkey must indicate the position of the baited well to receive the food reward. The performance of groups of monkeys was titrated into a narrow range by changing the number of wells or the duration of the delay. Monkeys were tested extensively to establish baseline performance before being administered drug or vehicle. Intramuscular administration of 0.00048 or 0.0016 mg/kg AZD0328 evoked a sustained increase in the percentage of correct responses monkeys made when compared with responses of vehicle-treated monkeys. […] Higher doses (≧0.016 mg/kg or higher) and lower doses (≦0.00016 mg/kg) had either no effect on monkeys or transiently impaired their performance of the task.
Rhesus monkey were trained in a spatial delayed response task. Middle doses of AZD0328 (0.0016 and 0.00048 mg/kg im) evoked a sustained improvement in rhesus monkey performance, while a higher dose (0.48 mg/kg) and a lower dose (0.000016 mg/kg) transiently impaired performance of the task (Table 2).

[8] = tested on: Mouse lymphoma; experiment: Mouse lymphoma test; format: cell-based
Text: (§1) The genotoxic potential of AZD0328 has been evaluated in the Ames test and in the Mouse lymphoma test. AZD0328 was not mutagenic in either of these tests.

[9] = Ames test
Text: as §1

[10] = both sexes, in vivo, rhesus monkey 2M+2F, 03.330/1, iv 1.15 mg/kg (5.32 μmol/kg)
[11] = both sexes, in vivo, rhesus monkey 2M+2F, 03.330/1, iv 3.85 mg/kg (17.8 μmol/kg)
[12] = both sexes, plasma, im, rhesus monkey 2F+2M, A7AGBU1006, intramuscular 1.7 mg/kg (8 μmol/kg)
[13] = both sexes, plasma, rhesus monkey 2M+2F, 03.330/1, iv 0.385 mg/kg (1.78 μmol/kg)
[14] = male, plasma, im, rhesus monkey 3M, A7AGBU1010, intramuscular 0.048 mg/kg (0.22 μmol/kg)

In the case of `c1cnc2c(c1)C[C@@]1(CN3CCC1CC3)O2` [AZD0328, (R)-Spiro[1-azabicyclo[2.2.2]octane-3,2′(3′H)-furo[2,3-b]pyridine]], the “10-90% rise time, whole cell current” value [1] is reported as 1.5 ms, the “Dose active: Ventral Tegmental Area dopamine neuron firing - increased” value [2] is reported as 0.00138 mg/kg and the “time of administration prior to object sampling at which object recognition index was still significantly increased” value [3] is reported as at most 48 h. For the same compound, the “GABA sIPSC frequency” value [4] was 251 % baseline, the half-life ([5]; both sexes, in vivo, rhesus monkey 2M+2F, 03.330/1, iv 0.385 mg/kg (1.78 μmol/kg)) was 106 ± 25.8 min and the clearance [5, 10] was 14.2 mL/min/kg. It also gave a half-life [5, 10] of 118 ± 37.8 min, a Vd [5, 10] of 2.52 ± 1.64 L/kg and a clearance [5, 11] of 14.5 mL/min/kg. The half-life [5, 11] was 128 ± 23.4 min, the Vd [5, 11] was 2.85 ± 1.6 L/kg and the AUC [5, 12] was 634 ± 81 ng·h/mL. For the same compound, the Tmax [5, 12] was 15 min, the Cmax ([5]; both sexes, plasma, im, rhesus monkey 2F+2M, A7AGBU1006, intramuscular 1.7 mg/kg (8 μmol/kg), read-out: Cmax) was 430 ng/mL and 1.99 µM and the half-life [5, 12] was 58.2 ± 7.2 min. The clearance [5, 13] was 21 mL/min/kg, the Vd [5, 13] was 3.29 ± 2.32 L/kg and the Tmax [5, 14] was 15 min. The Cmax ([5]; male, plasma, im, rhesus monkey 3M, A7AGBU1010, intramuscular 0.048 mg/kg (0.22 μmol/kg), read-out: Cmax) was 16.1 ng/mL and 74.6 nM, the half-life [5, 14] was 51 ± 13.8 min and the “estimated peak plasma concentrations” value ([5]; monkeys, 0.00048-0.016 mg per kg) was 0.6 to 18 nM. The Cmax ([5]; rhesus monkey, plasma, intramuscular, 0.016 mg/kg, rhesus monkeys, read-out: Cmax at NOAEL for behavioral side effects) was 18 nM, the “estimated free plasma Cmax” value ([5]; rhesus monkeys, 0.016 mg/kg (NOAEL)) was 18 nM and the NOAEL [6] was 0.016 mg/kg. The “duration of improved SDR performance after a single dose” value ([7]; four of nine monkeys, middle doses (0.0016 and 0.00048 mg/kg im)) was “more than one month”, the “higher doses with no effect or transiently impaired SDR performance” value ([7]; rhesus monkeys) was at least 0.016 mg/kg and the “lower doses with no effect or transiently impaired SDR performance” value ([7]; rhesus monkeys) was at most 0.00016 mg/kg. The “percent correct responses (SDR)” value ([7]; rhesus monkeys, 0.016 mg/kg) was “non-significant increase”, the mutagenicity [8] was “not mutagenic” and the mutagenicity [9] was “not mutagenic”.
